This experiment deals with HCT116 colon carcinoma cells. As to the kind of experiment: MTT cell viability assay. It is filed as cell-based, Human. Particulars: Homo sapiens, HCT-116, HCT116, 48 h of treatment, mean. Here is the method: Human colorectal carcinoma HCT116 cells (#91091005, ECACC) were grown in an IMDM medium (Biowest) supplemented with 2 mM glutamine, 100 IU/mL penicillin, 100 μg/mL streptomycin and 10% FBS (Gibco). The cell lines were grown at 37 °C in a humidified incubator containing 5% CO2. The cells were verified to be mycoplasma-free and passaged < 3 months. The inhibition of cell proliferation was measured by colorimetric 3-(4,5-dimethylthiazol-2-yl)-2,5-diphenyltetrazolium bromide (MTT) assay. GI50 concentrations were determined using the CompuSyn software version 1.0 (ComboSyn, Inc., Paramus, NJ USA) (free download via www.combosyn.com, accessed on 30 May 2022), and statistical analyses were performed using the GraphPad PRISM software (version 6.01 for Windows, GraphPad Software, San Diego, California USA GraphPad Prism) using unpaired t-test. Data were considered to be statistically significant if p < 0.05 (*), p < 0.01 (**), p < 0.001(***) and p < 0.0001 (****).

In turn, `COc1cc(/C=C/C(=O)CC(=O)/C=C/c2ccc(O)c(OC)c2)ccc1O` [CUR, Curcumin] had a GI50 of 12.9 µM.

Values taken from paper PMC9321647, “Curcumin-Based β-Diketo Ligands for Ga^3+: Thermodynamic Investigation of Potential Metal-Based Drugs” (Pharmaceuticals, 2022).
